Results: patent US5905073A, “Use of 2-hydroxy-5-phenylazobenzoic acid derivatives as colon cancer chemopreventative and chemotherapeutic agents” (priority 1996, dated 1999)
“Also recorded” adds a separate entry of the source. Where two headings read alike, the source gives them in different places.

Experiments:
LS174T cells [1] = assay: Proliferation of LS174T colon cancer cells, Coulter Counter cell count; type: cell-based, human
Protocol: (§1) Cells were grown in Dulbeccos Modified Eagle medium supplemented with 10% calf serum in an atmosphere of 5% CO2 at 37° C. For growth experiments, cells were seeded into 24-well tissue culture dishes (2 cm^2 /well) at a density of 20,000 cells/well and allowed to attach for 12 hours. The growth medium was then changed and replaced with fresh media containing the test drugs.
(§2) The test drugs were dissolved in tissue culture media at the desired concentration and added to individual wells. To determine the number of cells per well, media was removed and the cells washed with phosphate buffered saline solution. The cells were then incubated 15 minutes with trypsin-EDTA solution until detached. The detached cells were then removed from the wells and counted using a Coulter Counter (Model ZBI).
(§3) The cell numbers shown in Table I are the average of triplicate culture wells.

LS174T cells [2] = assay: Dose response growth inhibition of LS174T cells, Sulforhodamine B dye binding assay; type: cell-based, human; conditions: Homo sapiens
Protocol: (§4) For dose response studies a sensitive dye binding assay was adapted which allows simultaneous assay of multiple agents and doses in 96-well plates. Cells were plated and allowed to adhere for 24 hours prior to addition of the study drug. Cell densities were then determined 4 days later by fixation of the wells and staining with Sulforhodamine B dye.

LoVo cells = assay: Growth inhibition of LoVo colon cancer cells; type: cell-based; conditions: Homo sapiens, Table IV, read-out: IC50 for inhibition of human colon cancer cell proliferation
Protocol: as §4

human colon cancer cells = assay: Colon cancer cell proliferation in vitro, comparative statements; type: cell-based
Protocol: as §1, §2, §3
as §4, with “dye. Optical density of the stained cultures was then determined using a 96-well plate reader at 495 nm (Skehan et al. (1990) J. Natl. Cancer Inst. 82:1107-1112).” for “dye.”
Two such oxidation products, gentisic acid (Dull et al. (1987) Biochem. Pharmacol. 36:2467-2472) and 5-nitro-salicylate (Laffafian et al. (1991) Biochem. Pharmacol. 42:1869-1874) have been elucidated.

[3] = test system: rectal mucosal reactive oxygen metabolite production; conditions: cited from earlier work
[4] = rat; cited from earlier work
ulcerative colitis = conditions: active and quiescent ulcerative colitis; cited from earlier work
colonic inflammation = conditions: several animal models of colonic inflammation; cited from earlier work

SMILES: O=C(O)CCNC(=O)c1ccc(/N=N/c2ccc(O)c(C(=O)O)c2)cc1 [Balsalazide]
- Cell No. on Day 10 (LS174T cells [1]; 10 mM, average of triplicate wells): 24925
- activity at 10000 µM (LS174T cells [1]; Homo sapiens, 240 h, read-out: % of Control Cells): 3.51%
- IC50 (LS174T cells [2]; Table IV, read-out: IC50 for inhibition of human colon cancer cell proliferation): 5.29 mM
- IC50 (LS174T cells [2]; text (FIG. 5), read-out: IC50): 5.2 mM
- IC50 (LoVo cells): 5 mM
- inhibition of colon cancer cell growth (in words) (human colon cancer cells): potently inhibitory; also recorded: greater inhibitory response at lower concentrations than did 5-ASA
- relative sensitivity of LS174T and HT-29 cells (human colon cancer cells; LS174T vs HT-29): identical between both cell types
- reduction of rectal mucosal reactive oxygen metabolite production ([3]; rectal biopsies, ulcerative colitis patients): over 90%
- effectiveness relative to taurine, ascorbate or N-acetyl cysteine ([3]; similar concentrations): more effective
- maximum tolerated dose [4]: > 12,000 mg/kg/day
- anti-inflammatory activity in ulcerative colitis patients (ulcerative colitis): possesses anti-inflammatory activity
- anti-inflammatory activity in animal models (colonic inflammation): possesses anti-inflammatory activity
